{"source": "paper PMC13095444", "about": "“Discovery of RGS2-FBXO44 interaction inhibitors using a cell-based NanoBit assay” (Molecular Pharmacology, 2025)", "key": {"RGS2-FBXO44 interaction": {"target": "T1, RGS2-FBXO44 interaction (Homo sapiens, UniProt P41220)", "T1 construct": "expressed in transfected cells", "T1 sequence (P41220 1-211)": "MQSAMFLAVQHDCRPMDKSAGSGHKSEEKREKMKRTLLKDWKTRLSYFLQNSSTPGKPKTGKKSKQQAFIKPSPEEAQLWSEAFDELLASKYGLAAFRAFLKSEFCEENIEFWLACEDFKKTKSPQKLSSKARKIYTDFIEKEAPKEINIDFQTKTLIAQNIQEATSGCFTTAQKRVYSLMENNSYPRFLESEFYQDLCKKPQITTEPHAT", "test": "Coimmunoprecipitation of RGS2-HA and FLAG-FBXO44", "assay_type": "cell-based", "settings": "100 μM; anti-HA IP, FLAG-FBXO44 normalized to input, vs DMSO", "description": "The cells were harvested in RIPA buffer containing protease inhibitors. The cells were then lysed by incubating on ice with occasional vortexing for 30 minutes. The cell lysates were centrifuged at 9600 × g for 10 minutes, and the supernatants were precleared by incubating with 40 μL prewashed protein A agarose beads (Roche) for 1 hour with slow rotation at 4 °C. The samples were then centrifuged at 10,000 rpm for 1 minute, and the supernatant was used to determine total protein concentration with the Pierce BCA Protein Assay Kit (Thermo Scientific). In total, 500 μg of total protein was used for each reaction. The samples were incubated with 100 μM compound 10 for 30 minutes with rotation at 4 °C. An equal amount of DMSO was used as a vehicle. Additionally, 20 μL was removed from each sample (input); 3 μL of rabbit anti-HA antibody (H6908; Sigma Aldrich) and 40μL of protein A agarose beads (Roche) were added to each sample prior to incubation on rotator at 4 °C overnight. The samples were centrifuged at 9600 × g for 5 minutes at 4 °C, and the supernatant was removed. The samples were washed once with 1 mL RIPA buffer and then 3× with 1 mL PBS. Bound proteins were eluted by heating the samples at 95 °C in 30 μL of SDS sample buffer for 10 minutes. The samples were centrifuged at 10,000 rpm for 5 minutes at 4 °C, and the supernatants were subjected to SDS-PAGE and western blot analysis. […]"}, "RGS4": {"target": "T2, RGS4 (Homo sapiens, UniProt P49798)", "T2 construct": "expressed in transfected cells; host or cells: HEK-293T, transient transfection", "T2 sequence (P49798 whole entry, species assumed)": "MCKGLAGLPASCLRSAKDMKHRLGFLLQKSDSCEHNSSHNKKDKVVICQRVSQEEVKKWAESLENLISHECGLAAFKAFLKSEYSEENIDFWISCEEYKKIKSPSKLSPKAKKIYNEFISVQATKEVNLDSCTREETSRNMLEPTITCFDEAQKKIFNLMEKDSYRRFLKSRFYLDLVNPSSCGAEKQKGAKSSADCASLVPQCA", "test": "Cellular thermal shift assay (CETSA), RGS4-HA", "assay_type": "binding", "settings": "100 μM overnight (16–18 hours); gradient 40–60 °C; vs DMSO", "description": "The cells in 100 mm dishes were harvested by trypsination in reduced serum media and transferred to 15 mL conical tubes. The cells were centrifuged at 300 × g for 3 minutes. Media was removed, and the cell pellet was washed with 10 mL of PBS. The cells were then resuspended in 500 μL of PBS and aliquoted into polymerase chain reaction (PCR) tubes. The cells were then heated in a PCR gradient (40–60 °C) for 3 minutes and then transferred to a 25 °C PCR block for 3 minutes. Following this, cells were immediately flash-frozen using liquid nitrogen. The cells were freeze-thawed 3 times to lyse the cells and then spun down at 20,000 × g for 20 minutes. The supernatant was then added to sample buffer and heated for 5 minutes at 95 °C before SDS-PAGE and western blot analysis.\nWe next assessed whether the action of compound 10 to inhibit the RGS2-FBXO44 interaction is through direct binding to either protein. […] The cells were lysed and analyzed by western blot to determine melting temperatures (Tm). […] We also assessed the effect of compound 10 on the Tm for RGS4, which is closely related to RGS2 and also subject to proteasomal degradation, however, independent of FBXO44 ([Lee et al, 2005]; [Sjögren et al, 2015])."}}}
{"smiles": "CCC1CCCCN1S(=O)(=O)c1cc(Br)ccc1OC", "note": "(centres unmarked) [Compound 10]", "values": [{"measurement": "Association between RGS2 and FBXO44 (co-IP)", "setting": "RGS2-FBXO44 interaction", "value": "almost completely blocked"}, {"measurement": "Effect on the Tm for RGS4", "setting": "RGS4", "value": "no significant effect"}]}
